These results are taken from ChEMBL document CHEMBL1201862, “PubChem BioAssay data set” (2004).

What all share (test): growth of human tumour cells (NCI), 48 h
The test system of assay [1] is 786-0.
For assay [2], the system named is A498.
The subject of assay [3] is A549.
For assay [4], the system named is BT-549.
Assay [5] concerns CAKI-1.
Assay [6] deals with CCRF-CEM.
The test system of assay [7] is EKVX.
Assay [8] deals with HCT-116.
The subject of assay [9] is Hs-578T.
In assay [10] the test system is MOLT-4.
Assay [11] has as its system NCI/ADR-RES.
Assay [12] relates to OVCAR-4.
Assay [13] relates to OVCAR-5.
Assay [14] concerns OVCAR-8.
Assay [15] relates to PC-3.
The subject of assay [16] is RXF 393.
Assay [17] has as its system SF-268.
Assay [18] concerns T47D.
Assay [19] deals with U-251.
The subject of assay [20] is UO-31.

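Five concentrations, 48 hours, 96-well plates. The concentration for 50% growth inhibition is given as GI50.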 Activity calls are given as the source filed them. Rule as the data show it: active = GI50 up to about 1.1 µM and inactive = higher. A value given as a limit tells only on which side of the number the result lay.

With `O=C(O)C(=Cc1ccc(-c2ccccc2)cc1)C(=O)O`, the GI50 in [1] is 14.8 µM (inactive); in [2] it was 19.3 µM (inactive); in assay [3], 18 µM (inactive); in assay [4], 8.79 µM (inactive); in [5], 14.5 µM (inactive); in assay [6] it was 4.06 µM (inactive). In addition, the GI50 in assay [7] was > 100 µM (inactive); in assay [8] it was 10.4 µM (inactive); in [9], 24.4 µM (inactive); in assay [10], 15.8 µM (inactive); in assay [11] it was 13.2 µM (inactive); in assay [12], 15.1 µM (inactive). In addition, the GI50 was > 39.5 µM (inactive) in [13]; 16.6 µM (inactive) in assay [14]; 9.08 µM (inactive) in [15]; 4.02 µM (inactive) in assay [16]; 14.5 µM (inactive) in assay [17]; 11 µM (inactive) in [18]. Further, the GI50 in [19] was 12.5 µM (inactive); in [20] it was 12.4 µM (inactive).

In the case of `CN(C)Cc1cc(C(=O)/C=C/c2c(F)cccc2Cl)cc(CN(C)C)c1O`, the GI50 is 5.61 µM (inactive) in [1]; 6.5 µM (inactive) in assay [2]; 14.3 µM (inactive) in [3]; 8.2 µM (inactive) in [4]; 11.5 µM (inactive) in assay [5]; 5.13 µM (inactive) in [6]. Moreover, the GI50 is 12.8 µM (inactive) in assay [7]; 4.48 µM (inactive) in assay [8]; 17.5 µM (inactive) in [9]; 11.1 µM (inactive) in assay [10]; 17 µM (inactive) in assay [11]; 15.2 µM (inactive) in assay [12]. Moreover, the GI50 is 18.4 µM (inactive) in assay [13]; 12.4 µM (inactive) in assay [14]; 13.7 µM (inactive) in [15]; 2.69 µM (inactive) in assay [16]; 10.1 µM (inactive) in assay [17]; 14.9 µM (inactive) in [18]. In addition, the GI50 is 10.8 µM (inactive) in assay [19] and 3.7 µM (inactive) in [20].

Consider `CC(C)C(C(=O)O)N1C(=O)c2ccccc2C1=O` (stereo unspecified), for which the GI50 in assay [1], in [2], in assay [3], in [4], in [5] and in assay [6] was > 100 µM (inactive) each time. For the same compound, the GI50 in assay [7], in assay [8], in [9], in assay [10], in assay [11] and in [12] was > 100 µM (inactive) each time. The GI50 in assay [13], in [14], in assay [15], in assay [16], in [17] and in assay [18] was > 100 µM (inactive) each time. Further, in [19], the GI50 was > 100 µM (inactive).

`CC(=O)O[C@@H]1[C@@H](C)[C@]2(CC(c3ccoc3)OC2O)C2CCC3O[C@]3(C)[C@]2(C)[C@@H]1OC(C)=O` (stereo partly specified): the GI50 in assay [1] was 19.2 µM (inactive); in assay [2] it was 95.1 µM (inactive); in assay [3], 47.3 µM (inactive); in [4] it was 25.2 µM (inactive); in [5] it was > 100 µM (inactive); in assay [6] it was 18.2 µM (inactive). Also, the GI50 in [7] was 56.4 µM (inactive); in assay [8], 33.7 µM (inactive); in assay [9], 48.5 µM (inactive); in assay [10] it was 19.1 µM (inactive); in assay [11], 40.2 µM (inactive); in assay [12], 12.5 µM (inactive). Also, the GI50 in assay [13] was > 100 µM (inactive); in assay [14] it was 37.2 µM (inactive); in assay [15], 32.8 µM (inactive); in assay [16], 35.1 µM (inactive); in assay [17], 91 µM (inactive); in assay [18] it was 28.5 µM (inactive). Also, the results for the GI50 in assay [19] and in assay [20] were 83 µM (inactive) and 37.2 µM (inactive), respectively.

In the case of `Oc1ccc(Nc2nc(Cl)c3nc[nH]c3n2)cc1`, the GI50 is > 100 µM (inactive) in assay [1]; > 100 µM (inactive) in [2]; > 100 µM (inactive) in [3]; > 100 µM (inactive) in [4]; 61.9 µM (inactive) in assay [5]; 37.9 µM (inactive) in [6]. Further, the GI50 in assay [7], in [8], in assay [9], in [10], in assay [11] and in [12] was > 100 µM (inactive) each time. The GI50 in assay [13] is > 100 µM (inactive); in [14], > 100 µM (inactive); in [15] it was > 100 µM (inactive); in assay [16], > 100 µM (inactive); in assay [17] it was > 100 µM (inactive); in [18], 61.9 µM (inactive). The GI50 in [19] and in [20] was > 100 µM (inactive) each time.

Turning to `Cc1ncc([N+](=O)[O-])n1CCNC(=O)CCC(=O)NCCCn1ccnc1[N+](=O)[O-]`, the GI50 in assay [1], in [2], in [3], in [4], in assay [5] and in [6] was > 100 µM (inactive) in each case. Moreover, the GI50 in [7], in assay [8], in [9], in assay [10], in assay [11] and in assay [12] was > 100 µM (inactive) in each case. For the same compound, the GI50 in assay [13], in assay [14], in assay [15], in [16], in [17] and in [18] was > 100 µM (inactive) in each case. In addition, the GI50 in [19] and in [20] was > 100 µM (inactive) throughout.

Regarding `CN1CCN(CCCCNc2cc3c4ccccc4c(NCCCCN4CCN(C)CC4)cc3c3ccccc23)CC1`, the GI50 was 1.63 µM (inactive) in [1]; 12 µM (inactive) in assay [2]; 1.37 µM (inactive) in [3]; 5.89 µM (inactive) in [4]; 9.77 µM (inactive) in assay [5]; 0.703 µM (active) in assay [6]. The GI50 in assay [7] is 7.43 µM (inactive); in [8], 0.604 µM (active); in [9], 2.38 µM (inactive); in [10], 0.41 µM (active); in assay [11], 2.47 µM (inactive); in assay [12] it was 1.36 µM (inactive). The GI50 in assay [13] is 5.56 µM (inactive); in assay [14], 1.88 µM (inactive); in [15], 3.31 µM (inactive); in assay [16], 1.41 µM (inactive); in assay [17], 1.9 µM (inactive); in assay [18] it was 18.6 µM (inactive). In addition, the GI50 in [19] was 1.68 µM (inactive); in assay [20], 2.69 µM (inactive).

Consider `O=C1CC(=O)NC(NN2C(=O)CSC2c2ccc(Cl)cc2)=N1` (stereo unspecified), for which the GI50 is 37.2 µM (inactive) in assay [1]; > 100 µM (inactive) in assay [2]; > 100 µM (inactive) in assay [3]; 33.8 µM (inactive) in [4]; > 100 µM (inactive) in [5]; 25.7 µM (inactive) in assay [6]. For the same compound, the GI50 in assay [8] is > 100 µM (inactive); in assay [9] it was 25.6 µM (inactive); in assay [10], 28 µM (inactive); in assay [11], > 100 µM (inactive); in assay [12] it was > 100 µM (inactive); in [13], > 100 µM (inactive). In addition, the GI50 was 91.6 µM (inactive) in assay [14]; > 100 µM (inactive) in assay [15]; > 100 µM (inactive) in [16]; 45 µM (inactive) in assay [17]; > 100 µM (inactive) in assay [18]; 36.4 µM (inactive) in assay [19]. The GI50 in assay [20] was 21.3 µM (inactive).

On to `CC(NC1=NCCO1)c1ccsc1` (stereo unspecified), for which the GI50 in [1] was 18.8 µM (inactive); in assay [2] it was > 100 µM (inactive); in assay [3], 39.4 µM (inactive); in [4], 31.6 µM (inactive); in assay [5], > 100 µM (inactive); in [6], 19.4 µM (inactive). Also, the GI50 was 54.7 µM (inactive) in assay [7]; 16.4 µM (inactive) in assay [8]; 11.5 µM (inactive) in assay [9]; 22.7 µM (inactive) in [10]; > 100 µM (inactive) in assay [11]; 24.9 µM (inactive) in assay [12]. Further, the GI50 in [13] is > 100 µM (inactive); in assay [14] it was 28.6 µM (inactive); in [15], 21.1 µM (inactive); in [16], 33.5 µM (inactive); in assay [18], 33.3 µM (inactive); in assay [19], 18.2 µM (inactive). Further, the GI50 in assay [20] is > 100 µM (inactive).

In the case of `COc1ccc(C)cc1Nc1nnc(-c2ccc(N)cc2)s1`, the GI50 in assay [1] is 70.1 µM (inactive); in assay [2] it was > 100 µM (inactive); in [3] it was 7.53 µM (inactive); in assay [4], > 100 µM (inactive); in [5], 73.3 µM (inactive); in [6], 41 µM (inactive). In addition, the GI50 in assay [7] was 2.65 µM (inactive); in [8], 49.4 µM (inactive); in [9], > 100 µM (inactive); in assay [10], 35.3 µM (inactive); in assay [11], > 100 µM (inactive); in assay [12], > 100 µM (inactive). Also, the GI50 in assay [13] is 68.7 µM (inactive); in assay [14], 87.3 µM (inactive); in [15] it was 96.4 µM (inactive); in [16], 62.4 µM (inactive); in assay [17] it was > 100 µM (inactive); in assay [18], 36.1 µM (inactive). Further, the GI50 in assay [20] is 42 µM (inactive).
